Assay results taken from US11076600B2, “Mixtures of cis-jasmone and bacillus amyloliquefaciens” (BASF SE, priority 2015, dated 2021).

Experiments:
Type in all cases: in vivo
[1] = system: root knot nematodes (Meloidogyne incognita/acrita); experiment: Field trial: yield improvement against root knot nematode in cotton after seed treatment; settings: cotton (PhytoGen PHY 499 WRF) seed treatment; per 100 kg of seed: MBI600 1*10^11 CFU, cis-jasmone 0.2 g ai; harvest yield (pounds/acre) converted into % of untreated control; 4 replicates
From the text: (§1) To establish, whether a synergistic effect is present, the expected efficacy has to be calculated and compared to the observed efficacy of the mixture according to the invention.
(§2) Synergism can be described as an interaction where the combined effect of two or more compounds is greater than the sum of the individual effects of each of the compounds. The presence of a synergistic effect in terms of percent control, between two mixing partners (X and Y) can be calculated using the Colby equation (Colby, S. R., 1967, Calculating Synergistic and Antagonistic Responses in Herbicide Combinations, Weeds, 15, 20-22):
(§3) X=Observed efficacy (in % of Untreated Control) of compound 1
(§4) Y=Observed efficacy (in % of Untreated Control) of compound 2
(§5) E=Calculated (i.e. expected) efficacy (in % of Untreated Control)
(§6) When the observed efficacy (%) is greater than the calculated efficacy (E) according to Colby (%), then the combined effect is synergistic.
For evaluating control of root knot nematodes (Meloidogyne incognita/acrita) in cotton, cotton seeds (variety PhytoGen PHY 499 WRF) were treated with cis-jasmone, MBI600 (Bacillus amyloliquefaciens ssp. plantarum MBI600), or a mixture thereof.
(§7) Seeds were placed in a plastic cup and the compounds, or the mixture thereof, was dosed on the seeds with an application rate of 0.2 g of cis-jasmone per 100 kg of seeds, and 1*10^11 CFU of MBI600 per 100 kg of seeds. […]

[2] = system: soybean cyst nematodes (Heterodera glycines); experiment: Field trial: yield improvement against soybean cyst nematode in soybean after seed treatment; settings: soybean (Dyna-Gro 39RY43) seed treatment; per 100 kg of seed: MBI600 1*10^11 CFU, cis-jasmone 0.2 g ai; harvest yield (bushels/acre) converted into % of untreated control; 4 replicates
From the text: as §1, §2, §3, §4, §5, §6
For evaluating control of soybean cyst nematodes (Heterodera glycines) in soybean, soybean seeds (variety Dyna-Gro 39RY43) were treated with cis-jasmone, MB1600 (Bacillus amyloliquefaciens ssp. plantarum MB1600), or a mixture thereof.
as §7

[3] = system: root knot nematodes (Meloidogyne incognita/acrita); experiment: Field trial: yield improvement against root knot nematode in corn after seed treatment; settings: corn (NG6247MQKZ, NF5334MQKZ, NG4549MQKZ) seed treatment; per 100 kg of seeds: MBI600 1*10^11 CFU, cis-jasmone 0.2 g ai; harvest yield (bushels/acre) converted into % of untreated control; 4-6 replicates
From the text: as §1, §2, §3, §4, §5, §6
For evaluating control of root knot nematodes (Meloidogyne incognita/acrita) in corn, corn seeds (varieties NG6247MQKZ, NF5334MQKZ and NG4549MQKZ, respectively) were treated with cis-jasmone, MBI600 (Bacillus amyloliquefaciens ssp. plantarum MBI600), or a mixture thereof. […]

CC/C=C\CC1=C(C)CCC1=O [Cis-jasmone]
Observed efficacy (%) [1]: 47.2%
Observed efficacy (%) [2]: 9%
Observed efficacy (%) [3]: 9.2%
